Assay: Phase behavior and solubility of lipid in dense CO2 / threshold pressure for precipitation
Assay type: physicochemical
Description: Prior to liposome or niosome formation, the phase behavior and solubility of the chosen lipid in dense CO2 were investigated to verify the suitability of the lipid for dense gas processing and, in particular LPLTVs processing.
Knowledge of the threshold pressure for precipitation of lipid from solution is also a key factor for design of the LPLTVs process in order to determine the maximum pressure for the technique so that yield is enhanced and loss of lipid in the expansion chamber minimized. The solid state of 1,2 distearoyl-sn-glycero-3-phosphocholine (DSPC) was maintained when the lipid was exposed to CO2 below 350 bar at 50° C. and 150 bar at 70° C. The solubility of DSPC in pure CO2 at 50° C. and pressures up to 280 bar was considered negligible. […] Use of higher pressures or larger amounts of organic solvent are undesirable, thus the results of the solubility study are in agreement with the literature in concluding that effects arising from poor solubility of lipids in dense CO2 are not easily overcome.
In prior art, at 50° C. and 250 bar, DSPC required the addition of 4.8% v/v ethanol as well as the use of a recycling system for homogeneous dissolution of the lipid in CO2. In the current embodiment, the use of the LPLTVs process eliminates the current limitations of dense gas techniques associated with solubilizing lipids using a supercritical fluid and simply utilizes a dense gas as an aerosolization aid. The threshold pressure for the precipitation of DSPC from a 10 mg/mL ethanol solution at 22° C. was 55 bar.
Precipitation was first observed at 58, 55, and 56 bar for the 5, 10, and 20 mg/mL solutions of DSPC and cholesterol (70:30 lipid to cholesterol weight ratio) in ethanol at 22° C., respectively. Therefore it can be seen that cholesterol had negligible effect on the threshold pressure. […] A faster pressurization rate is preferable for the embodiments LPLTVs process in order to minimize the time requirement for each experiment. During this experiment, noticeable expansion only started to occur after 50 bar was reached. […]

- threshold pressure for precipitation (10 mg/mL ethanol solution, 22° C.): 55 bar
- effect of ethanol co-solvent on solubility in CO2 (5 mol % ethanol, 50° C., 250 bar): did not significantly improve
- solubility in pure CO2 (50° C., pressures up to 280 bar): negligible
SMILES: CCCCCCCCCCCCCCCCCC(=O)OC[C@H](COP(=O)([O-])OCC[N+](C)(C)C)OC(=O)CCCCCCCCCCCCCCCCC [DSPC, 1,2 distearoyl-sn-glycero-3-phosphocholine]

— US10322074B2, “Apparatus and method for preparing cosmeceutical ingredients containing epi-dermal delivery mechanisms” (PPP&C INC., priority 2015, dated 2019)
